Source: patent publication US20210022342A1, “THE USE OF SAFENERS TO IMPROVE RESISTANCE OF RICE CROP TO HERBICIDES” (Adama Agan Ltd., priority 2018, published 2021)

Key:
Format in all cases: in vivo
[1] = test system: wild type rice (Non-Traited Rice); assay: Imazamox dose response with or without isoxadifen, regrowth, wild type rice; conditions: for Calculated effect of Safener (relative fresh weight re-growth): difference with and without isoxadifen on Non-Traited Rice
Experimental: (§1) Seed of an ALS resistant rice variety (rice plant with the A205V and G654E substitution (ATCC accession numbers PTA-123859, PTA-123860 and/or PTA-123861) is planted in a commercial greenhouse soil mix in 10×10×10 cm plastic pots. 250 mL of soil is put into each pot, then the seed is placed on top of the soil and the seed is covered with 100-150 mL of soil. Approximately 8-10 seeds are planted per pot. The pots are then watered with 100 mL of a mixture of Miracle Grow and Fertiplus (iron supplement). The pots are placed in the greenhouse (38° C./20° C. day/night, 14 h photoperiod with supplemental light). The average light intensity in the greenhouse is 150 μM/m^2/sec.
(§2) Plants are grown until 10 days after planting and then the pots are transferred to trays and the plants are grown under water. Plants are treated when they reach the 3-5 leaf stage.
(§3) Generally, plants are treated through a moving nozzle spray system in a spray volume of 200 l/ha or 187 l/ha. Isoxadifen is tank mixed with the herbicide in the spray bottle at a rate of 100 g/ha.
(§4) Four days after treatment, the tops of the plants are cut off to approximately 3 cm from the top of the soil. The plants are allowed to regrow for 7 days at which time the amount of regrowth is measured by cutting any growth above 3 cm above the top of soil and weighing the tissue that regrew.
(§5) The imazamox (in rates of 0, 2.2, 6.6, 19.7, 54.9 and 177.3 g/ha) was applied on wild type rice and herbicide resistance rice in the presence or absence of safener (isoxadifen at 100 g/ha).
(§6) The improvement in regrowth was calculated by subtracting the regrowth from a) wild type rice and wild type rice with isoxadifen; b) herbicide resistant rice; and c) herbicide resistant rice and isoxadifen.
(§7) Calculations were done for each application rate of imazamox. The efficacy of safener alone and mutation alone on decreasing herbicide effect/increasing herbicide resistance were calculated. The relative fresh weight re-growth is the percentage of activity (for Colby).
(§8) The re-growth data was implemented in curve and the synergistic effect was calculated. The observed efficacy is higher than calculated efficacy.

[2] = test system: ALS resistant rice variety (A205V and G654E substitution); assay: Imazamox dose response with or without isoxadifen, regrowth, ALS resistant rice
Experimental: as §1, §2, §3, §4
Efficacy tests were conducted to determine the effect of imazamox on rice plant with the A205V and G654E substitutions (ATCC accession numbers PTA-123859, PTA-123860 and/or PTA-123861) in the presence of safener (isoxadifen).
as §5, §6, §7, §8

[3] = test system: mutant rice (ML0831265-01493, ATCC deposit PTA-12933, mutation G2096S); assay: Tank mixes of safeners with propaquizafop or quizalofop: regrowth of mutant rice
Experimental: (§9) Seeds of a proprietary ACCase resistant rice variety, i.e. RTA1, was used. RTA1, ML0831265-01493 (ATCC deposit PTA-12933, mutation G2096S) variety rice seeds were supplied by RiceTec. RTA1 rice cultivar contains a single mutation in the ACCase gene that confer ACCase resistance. The mutation makes the enzyme insensitive to quizalofop.
as §1, with “Mutant” for “Seed of an ALS resistant”, “seeds were” for “variety (rice plant with the A205V and G654E substitution (ATCC accession numbers PTA-123859, PTA-123860 and/or PTA-123861) is”, “in” for “in a”, “was” for “is”, “seeds were” for “seed is”, “were” for “are”
Plants were grown until 10 days after planting and then the pots were transferred to trays and the plants were grown under water. :Plants were treated when they reached the 3-5 leaf stage.
Safeners were tank mixed with the herbicide in the spray bottle.
(§10) Four days after treatment, the tops of the plants were cut off so that approximately 2.5 cm of plant from the top of the soil remain. The plants were allowed to regrow for 3 days at which time the amount of regrowth was weighed by measuring the amount of fresh weight of tissue that regrew. Comparing the weight of regrowth of shoots after cutting indicates the level of phytotoxicity the herbicide had on the mutant rice plant and the increased level of resistance of the mutant rice to the herbicide when the herbicide was applied in combination with the safener.
The safeners were applied in various w/w ratios with the ACCase inhibiting herbicides to the rice plant.

[4] = test system: ACCase inhibitor resistant rice seeds (ML0831265-01493 (ATCC deposit PTA-12933, mutation G2096S)); assay: Safener seed treatment with propaquizafop or quizalofop: regrowth of resistant rice
Experimental: as §9
as §1, with “Mutant” for “Seed of an ALS resistant”, “seeds were” for “variety (rice plant with the A205V and G654E substitution (ATCC accession numbers PTA-123859, PTA-123860 and/or PTA-123861) is”, “in” for “in a”, “was” for “is”, “seeds were” for “seed is”, “were” for “are”
Plants were grown until 10 days after planting and then the pots were transferred to trays and the plants were grown under water. :Plants were treated when they reached the 3-5 leaf stage. […]
as §10
The safeners were also applied in various w/w ratios of the ACCase inhibiting herbicides to the rice seeds.

[5] = tank mix with propaquizafop 50 g/ha, safener 12.5 g/ha
[6] = tank mix with propaquizafop 50 g/ha, safener 25 g/ha
[7] = tank mix with propaquizafop 50 g/ha, safener 50 g/ha
[8] = tank mix with propaquizafop 50 g/ha, safener 100 g/ha
[9] = tank mix with quizalofop 40 g/ha, safener 12.5 g/ha
[10] = tank mix with quizalofop 40 g/ha, safener 25 g/ha
[11] = tank mix with quizalofop 40 g/ha, safener 50 g/ha
[12] = tank mix with quizalofop 40 g/ha, safener 100 g/ha
[13] = propaquizafop, safener seed treatment 0.5 g/kg of seed
[14] = propaquizafop, safener seed treatment 1 g/kg of seed
[15] = propaquizafop, safener seed treatment 2 g/kg of seed
[16] = quizalofop, safener seed treatment 0.5 g/kg of seed
[17] = quizalofop, safener seed treatment 1 g/kg of seed
[18] = quizalofop, safener seed treatment 2 g/kg of seed

COCc1cnc(C2=NC(C)(C(C)C)C(=O)N2)c(C(=O)O)c1 (racemic) [Imazamox, 2-[(RS)-4-isopropyl-4-methyl-5-oxo-2-imidazolin-2-yl]-5-methoxymethylnicotinic acid]
Relative fresh weight re-growth after treatment ([1]; Non-Traited Rice, imazamox 2.2 g/ha): 0.36
Relative fresh weight re-growth after treatment ([1]; Non-Traited Rice, imazamox 6.6 g/ha): 0.16
Relative fresh weight re-growth after treatment ([1]; Non-Traited Rice, imazamox 19.7 g/ha): 0.14
Relative fresh weight re-growth after treatment ([1]; Non-Traited Rice, imazamox 54.9 g/ha): 0.11
Relative fresh weight re-growth after treatment ([1]; Non-Traited Rice, imazamox 177.3 g/ha): 0.09
Relative fresh weight re-growth after treatment ([1]; Safener & Non-Traited Rice (isoxadifen 100 g/ha), imazamox 2.2 g/ha): 0.47
Relative fresh weight re-growth after treatment ([1]; Safener & Non-Traited Rice (isoxadifen 100 g/ha), imazamox 6.6 g/ha): 0.17
Relative fresh weight re-growth after treatment ([1]; Safener & Non-Traited Rice (isoxadifen 100 g/ha), imazamox 19.7 g/ha): 0.06
Relative fresh weight re-growth after treatment ([1]; Safener & Non-Traited Rice (isoxadifen 100 g/ha), imazamox 54.9 g/ha): 0.05
Relative fresh weight re-growth after treatment ([1]; Safener & Non-Traited Rice (isoxadifen 100 g/ha), imazamox 177.3 g/ha): 0.05
Efficacy at ED50 of mutant- 42 g/ha (%) ([1]; calculated effect of safener alone, imazamox 42 g/ha): 0%
Calculated effect of Safener (relative fresh weight re-growth) ([1]; imazamox 2.2 g/ha): 0.12
Calculated effect of Safener (relative fresh weight re-growth) ([1]; imazamox 6.6 g/ha): 0.02
Calculated effect of Safener (relative fresh weight re-growth) ([1]; imazamox 19.7 g/ha): −0.08
Calculated effect of Safener (relative fresh weight re-growth) ([1]; imazamox 54.9 g/ha): −0.06
Calculated effect of Safener (relative fresh weight re-growth) ([1]; imazamox 177.3 g/ha): −0.04
increase of resistance (ED50) by the safener ([1]; wildtype rice with safener vs without): 4 folds
Relative fresh weight re-growth after treatment ([2]; Mutant & Safener (isoxadifen 100 g/ha), imazamox 2.2 g/ha): 1.17
Relative fresh weight re-growth after treatment ([2]; Mutant & Safener (isoxadifen 100 g/ha), imazamox 6.6 g/ha): 1.33
Relative fresh weight re-growth after treatment ([2]; Mutant & Safener (isoxadifen 100 g/ha), imazamox 19.7 g/ha): 1.14
Relative fresh weight re-growth after treatment ([2]; Mutant & Safener (isoxadifen 100 g/ha), imazamox 54.9 g/ha): 0.53
Relative fresh weight re-growth after treatment ([2]; Mutant & Safener (isoxadifen 100 g/ha), imazamox 177.3 g/ha): 0.13
Relative fresh weight re-growth after treatment ([2]; Mutant, no safener, imazamox 2.2 g/ha): 0.93
Relative fresh weight re-growth after treatment ([2]; Mutant, no safener, imazamox 6.6 g/ha): 0.99
Relative fresh weight re-growth after treatment ([2]; Mutant, no safener, imazamox 19.7 g/ha): 0.68
Relative fresh weight re-growth after treatment ([2]; Mutant, no safener, imazamox 54.9 g/ha): 0.42
Relative fresh weight re-growth after treatment ([2]; Mutant, no safener, imazamox 177.3 g/ha): 0.15
Calculated efficacy base on Colby (%) ([2]; expected for mutant & safener, imazamox 42 g/ha): 50%
additive effect of safener and mutant on ED50 ([2]; expected, 4+85): 89 folds
observed increase in ED50 ([2]; herbicide resistant rice with safener vs the wildtype): 120 folds
Observed efficacy (%) ([2]; mutant & safener, imazamox 42 g/ha): 77%
Efficacy at ED50 of mutant- 42 g/ha (%) ([2]; mutant alone, imazamox 42 g/ha): 50%
increase in tolerance to herbicide (ED50) by the mutation ([2]; mutant rice vs wildtype rice, no safener): 85 fold

O=C(C(Cl)Cl)N1CCOC12CCCCC2 [AD-67]
Regrowth (fresh weight mg) [3, 5]: 68 mg
Regrowth (fresh weight mg) [3, 6]: 222 mg
Regrowth (fresh weight mg) [3, 7]: 288 mg
Regrowth (fresh weight mg) [3, 8]: 512 mg
Regrowth (fresh weight mg) [3, 9]: 202 mg
Regrowth (fresh weight mg) [3, 10]: 292 mg
Regrowth (fresh weight mg) [3, 11]: 348 mg
Regrowth (fresh weight mg) [3, 12]: 505 mg
Regrowth (fresh weight mg) [4, 13]: 173 mg
Regrowth (fresh weight mg) [4, 14]: 113 mg
Regrowth (fresh weight mg) [4, 15]: 170 mg
Regrowth (fresh weight mg) [4, 16]: 233 mg
Regrowth (fresh weight mg) [4, 17]: 285 mg
Regrowth (fresh weight mg) [4, 18]: 298 mg

CC1COc2ccccc2N1C(=O)C(Cl)Cl (centres unmarked) [Benzacor, benoxacor]
Regrowth (fresh weight mg) [4, 13]: 37 mg
Regrowth (fresh weight mg) [4, 14]: 107 mg
Regrowth (fresh weight mg) [4, 15]: 98 mg
Regrowth (fresh weight mg) [4, 16]: 90 mg
Regrowth (fresh weight mg) [4, 17]: 72 mg
Regrowth (fresh weight mg) [4, 18]: 78 mg

O=C(O)COc1ccc(Cl)c2cccnc12 [Cloquinoce, cloquintocet]
Regrowth (fresh weight mg) [3, 5]: 42 mg
Regrowth (fresh weight mg) [3, 6]: 90 mg
Regrowth (fresh weight mg) [3, 7]: 158 mg
Regrowth (fresh weight mg) [3, 8]: 355 mg
Regrowth (fresh weight mg) [3, 9]: 172 mg
Regrowth (fresh weight mg) [3, 10]: 132 mg
Regrowth (fresh weight mg) [3, 11]: 252 mg
Regrowth (fresh weight mg) [3, 12]: 398 mg
Regrowth (fresh weight mg) [4, 13]: 275 mg
Regrowth (fresh weight mg) [4, 14]: 342 mg
Regrowth (fresh weight mg) [4, 15]: 358 mg
Regrowth (fresh weight mg) [4, 16]: 143 mg
Regrowth (fresh weight mg) [4, 17]: 145 mg
Regrowth (fresh weight mg) [4, 18]: 273 mg

Clc1cc(Cl)nc(-c2ccccc2)n1 [Fenclorim, fenclorim]
Regrowth (fresh weight mg) [3, 5]: 15 mg
Regrowth (fresh weight mg) [3, 6]: 13 mg
Regrowth (fresh weight mg) [3, 7]: 15 mg
Regrowth (fresh weight mg) [3, 8]: 15 mg
Regrowth (fresh weight mg) [3, 9]: 42 mg
Regrowth (fresh weight mg) [3, 10]: 52 mg
Regrowth (fresh weight mg) [3, 11]: 67 mg
Regrowth (fresh weight mg) [3, 12]: 55 mg
Regrowth (fresh weight mg) [4, 13]: 137 mg
Regrowth (fresh weight mg) [4, 14]: 195 mg
Regrowth (fresh weight mg) [4, 15]: 283 mg
Regrowth (fresh weight mg) [4, 16]: 163 mg
Regrowth (fresh weight mg) [4, 17]: 167 mg
Regrowth (fresh weight mg) [4, 18]: 180 mg

CC(C)=NOCCOC(=O)[C@@H](C)Oc1ccc(Oc2cnc3cc(Cl)ccc3n2)cc1 [Propaquizafop, (R)-2-[[(1-methylethylidene)amino]oxy]ethyl 2-[4-[(6-chloro-2-quinoxalinyl)oxy]phenoxy]propanoate]
Regrowth (fresh weight mg) ([3]; propaquizafop 50 g/ha, no safener): 25 mg
Regrowth (fresh weight mg) ([4]; propaquizafop, seeds without safener): 55 mg
